Assay results as given in patent US20240343762A1, “USE OF PROTON PUMP MODULATOR IN PREPARING REAGENT” (SHANGHAI QUIETD BIOTECHNOLOGY CO. LTD., priority 2021, published 2024).
Ends that are not written are not given here.

Tests used:
[1] = test system: hippocampal CA1 pyramidal neurons; assay: Whole-cell patch-clamp recording of spontaneous excitatory postsynaptic current (sEPSC) in hippocampus brain slice; format: cell-based, mouse; conditions: sEPSC at -70 mV, perfusion for 5 min; 5 μM in Embodiment 3
Protocol: 0.1-0.15 ml of 20% ethyl carbamate was injected into the abdominal cavity of a C57 mouse of 2 to 3 months old for anesthesia; a head was quickly cut, and brain tissues were stripped and put into artificial cerebrospinal fluid (ACSF) ice-water mixed liquid into which mixed gas (95% O2 and 5% CO2) was introduced in advance, and stood for 2 min; the ACSF included the following components: […] of NaCl, […] of KCl, 0.12 mM of NaH2PO4, 0.25 mM of CaCl2), 0.12 mM of MgCl2, 25 mM of NaHCO3 and 11 mM of glucose. A hippocampus coronal brain slice of 350 μm was cut by a vibration slicer. The hippocampus coronal brain slice was placed into the ACSF at room temperature for more than 30 min for recovery, and then the brain slice was put into a record slot; continuous perfusing was performed at a speed of 2 to 2.5 ml/min by the ACSF into which the mixed gas was introduced; blind-binding sealing was performed on hippocampus CA1 pyramidal neuron under an Olympic BX51 upright microscope; whole-cell patch-clamp was performed by an Axon700B amplifier and a 1550B digital-to-analog converter; spontaneous excitatory postsynaptic current (sEPSC) of the pyramidal neuron was recorded by a voltage clamp under the clamp voltage of −70 mV; after recording for 5 min, synthetic polypeptides such as 5 μM QD202 or QD202 N′-1, C′-1 and C′-2 for 5 min; and then perfusing and flushing were performed for 10 min by the ACSF. The recorded data was analyzed by Minianalysis software. […]

[2] = biological target: T1, ATP6V1B2 protein of mouse brain hippocampus tissue (endogenous) (mouse, UniProt P62814 1-511); assay: immunoprecipitation with biotin antibody from mouse hippocampus lysate, SDS-PAGE, mass spectrometry
T1 construct: Endogenous protein in tissue lysate; also called band of about 55 kDa
T1 sequence (P62814 whole entry): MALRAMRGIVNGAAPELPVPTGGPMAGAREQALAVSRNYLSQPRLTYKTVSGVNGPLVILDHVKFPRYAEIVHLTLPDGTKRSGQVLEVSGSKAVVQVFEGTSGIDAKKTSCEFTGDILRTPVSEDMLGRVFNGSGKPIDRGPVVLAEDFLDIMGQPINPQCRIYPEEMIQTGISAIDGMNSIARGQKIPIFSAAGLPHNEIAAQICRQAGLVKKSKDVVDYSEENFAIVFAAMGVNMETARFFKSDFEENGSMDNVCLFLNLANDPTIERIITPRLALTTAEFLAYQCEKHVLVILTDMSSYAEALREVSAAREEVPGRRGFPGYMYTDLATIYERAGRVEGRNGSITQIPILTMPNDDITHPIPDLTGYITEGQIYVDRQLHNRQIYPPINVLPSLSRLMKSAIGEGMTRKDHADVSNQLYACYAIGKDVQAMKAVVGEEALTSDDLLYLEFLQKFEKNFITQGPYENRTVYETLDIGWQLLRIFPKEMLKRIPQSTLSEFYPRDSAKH

Molecule	spontaneous excitatory synaptic transmitter release of hippocampal CA1 neurons [1]	binding result [2]
QD202 C′-1: polypeptide of SEQ ID NO. 3; QD202 with one amino acid removed at the C end (YGRKKRRQRRRSPVDVVC; QD202 C -1)	effect similar to that of QD202 can still be observed	
QD202 C′-2: polypeptide of SEQ ID NO. 4; QD202 with two amino acids removed at the C end (YGRKKRRQRRRSPVDVV; QD202 C -2)	effect similar to that of QD202 cannot be observed	
QD202 N′-1: polypeptide of SEQ ID NO. 2; QD202 with one amino acid removed at the N end (YGRKKRRQRRRPVDVVCS; QD202 N -1)	effect similar to that of QD202 cannot be observed	
YGRKKRRQRRRVCDSSVVP-biotin [Disordered control QD201 with a biotin label at the C' end]		no binding
